Test results: patent US20240117357A1, “REGULATION OF METABOLISM AND OBESITY BY MITOCHONDRIAL MUL1 E3 UBIQUITIN LIGASE” (University of Central Florida Research Foundation, Inc., priority 2022, published 2024)

Experiments:
Format in all cases: cell-based, human
HEK293 Akt2(−/−) cells [1] = assay: Glycolytic Stress Test (ECAR, Seahorse XFe24); conditions: DMOG 100 μM for 4 hours
Procedure: (§1) To monitor glycolysis in the cell lines, the Glycolysis Stress Test was performed using a XFe24 Extracellular Flux Analyzer (Agilent Technologies). HEK293 WT, MUL1(−/−) and Akt2(−/−) cells were seeded in triplicates on poly-lysine D-coated XFe24 microplates at a density of 60,000 cells per well in assay medium (XF DMEM pH 7.4 containing 2 mM glutamine and 1 mM sodium pyruvate without glucose) for one hour in a CO2-free incubator. Extracellular acidification rate (ECAR) was measured under basal conditions and again after sequential injections of glucose (10 mM) in port A, ATP synthase inhibitor oligomycin (1.5 μM) in port B, and the glycolysis inhibitor 2-deoxyglucose (2-DG) (300 mM) in port C. Basal glycolysis was assessed by recording three measurements, following the addition of each compound by a 3-2-3 mix/measurement cycle. Glycolysis is the ECAR after the addition of glucose. Glycolytic capacity is the increase in ECAR after the injection of oligomycin following glucose. Glycolytic reserve is the difference between glycolytic capacity and glycolysis. Data analysis was performed using Report Generators software for Glycolysis Stress Test (Agilent Technologies).

HEK293 WT cells = assay: Glycolytic Stress Test (ECAR, Seahorse XFe24); conditions: DMOG 100 μM for 4 hours
Procedure: as §1

HEK293 Akt2(−/−) cells [2] = assay: 13C-NMR isotopomer metabolic flux analysis ([U-13C]glucose, tcaCALC)
Procedure: For NMR analysis, approximately 20×10^6 HEK293 WT, MUL1(−/−), or Akt2(−/−) cells were grown to confluency following treatment with perifosine, or chetomin inhibitors as well as with the HIF-1α activator DMOG and DMSO was used as vehicle control. Freshly prepared [U-^13C]glucose tracer containing medium (glucose free DMEM with 10% dialyzed FBS and 15 mM [U-^13C]glucose) was added to the cells for 6 hours at 37° C. Cells were scraped from the plates, washed twice with cold PBS, and immediately snap frozen in liquid nitrogen (161).
Cell pellets were bead-homogenized in 1 ml acetonitrile:isopropanol:water (3:3:2, v:v:v), centrifuged at 10,000×g for 15 min at 4° C. and the supernatant removed and dried in a speedvac. Dried cell extracts of each sample were re-suspended in 0.5 ml of acetonitrile: water (1:1, v:v) solution, vortexed, and centrifuged for 15 min at 10,000×g at 4° C. The supernatant was transferred to a new tube and dried in a speedvac The dried extract of each cell pellet was re-suspended in phosphate buffer (prepared in Deuterium oxide (D2O)) for NMR analysis. […]
^1H-NMR spectra were collected on an 800 MHz NMR, equipped with a 5 mm TXI CryoProbe and Avance III console (Bruker Biospin), using TopSpin software (version 3.6.3). […] The conventional ^1H-decoupled ^13C-NMR spectra were acquired for each sample at 150.13 MHz, using a ^13C-optimized 1.5 mm high temperature superconducting (HTS) probe on an Agilent NMR system with the magnetic field strength of 14 tesla. ^13C-NMR spectra were recorded using an acquisition time (AQ) of 1.5 sec, relaxation delay (dl) of 1.5 sec, flip angle of 45°, acquired size (TD) of 54 k with the spectral width of 250 ppm (Ramaswamy et al., 2013). […]
The positional ^13C-isotopomer distribution pattern of glutamate was determined by ^13C-NMR. ^13C-NMR resonances of various isotopomers of glutamate are identified from the ^13C-^13C J-coupling constants and quantified by line fitting to the glutamate resonances at C2, C3, C4, and C5 positions. […]

HEK293 MUL1(−/−) cells [3] = assay: Glycolytic Stress Test (ECAR, Seahorse XFe24); conditions: 2.5 μM perifosine or 500 nM chetomin for 4 hours
Procedure: as §1

HEK293 MUL1(−/−) cells [4] = assay: Mitochondrial Stress Test (OCR, Seahorse XFe24); conditions: for oxygen consumption rate (OCR): HEK293 MUL1(−/−) cells, 2.5 μM perifosine or 500 nM chetomin for 4 hours; for mitochondrial respiration: at the concentration used (2.5 μM perifosine, 500 nM chetomin, 4 hours)
Procedure: Mitochondrial stress assay was performed using an XFe24 Extracellular Flux Analyzer (Agilent Technologies) following the workflow provided by the manufacturer's instructions. Briefly, for Oxygen Consumption Rate (OCR) measurements, HEK293 WT and MUL1(−/−) cells were seeded in triplicates on poly-lysine D-coated XF24 microplates at a density of approximately 60,000 cells per well in assay medium (XF DMEM medium pH 7.4 supplemented with 10 mM glucose, 2 mM glutamine, and 1 mM pyruvate), followed by incubation at 37° C. in CO2-free incubator for 60 minutes. Three baseline measurements were recorded before the injection of the following compounds: 1.5 μM of oligomycin in port A, 1.0 μM of FCCP in port B and 0.5 μM rotenone/antimycin in port C. Data analysis was performed using Cell Mito Stress Test Report Generators software (Agilent Technologies).

HIF-1α = assay: Western blot of HIF-1α target protein GLUT1; conditions: 500 nM chetomin for 4 hours
Procedure: (§2) Control (untreated) as well as cells treated with perifosine, chetomin or DMOG were lysed using a Triton X-100 based lysis buffer (1% Triton X-100, 10% glycerol, 150 mM NaCl, 20 mM Tris (pH 7.5), 2 mM EDTA) in the presence of protease inhibitors (Thermo Fisher Scientific). Approximately 40 μg of whole cell extract was resuspended in SDS sample buffer, boiled for 4 minutes, and analyzed by SDS-PAGE (12% or 15% gels), then transferred onto PVDF membranes (Genesee) using a semi-dry cell transfer blot (Bio-Rad). Nonfat dry milk (4%) or 5% BSA (for Akt2 and phospho-specific antibodies) in TBST buffer (25 mM Tris-HCl, pH 8.0, 125 mM NaCl, 0.1% Tween 20) were used to block nonspecific binding of the membrane. The membranes were incubated with the indicated primary antibodies: HIF-1α (Bioss Antibodies, 1:2,000), AKT (pan), Akt1, Akt2, Akt3, phospho-Akt-T308, phospho-GSK-3β-S9, ULK1 (Cell Signaling Technology 1:2,000), GLUT1, (ABclonal 1:2,000), MFN2, and β-actin (Santa Cruz Biotechnology, 1:3,000). MUL1 and UBXN7 rabbit polyclonal antibodies were homegrown and used at 1:5,000 dilution. Secondary peroxidase-conjugated goat anti-rabbit or goat anti-mouse antibodies (Jackson ImmunoResearch) were used at 1:10,000 dilution. The membrane was visualized by enhanced chemiluminescence (ECL) (Thermo Fisher Scientific).

Akt2 = assay: Western blot of Akt2 target P-GSK-3β S9; conditions: 2.5 μM perifosine for 4 hours
Procedure: as §2

Structure (SMILES) | glycolysis and glycolytic capacity (HEK293 Akt2(−/−) cells [1]) | glycolysis and glycolytic capacity (HEK293 WT cells) | YPC flux (HEK293 Akt2(−/−) cells [2]; Akt2(−/−)+DMOG cells compared with HEK293 WT and MUL1(−/−) cells) | PK flux (HEK293 Akt2(−/−) cells [2]; Akt2(−/−)+DMOG cells compared with HEK293 WT cells) | PK, YPC, and YS fluxes (HEK293 Akt2(−/−) cells [2]; Akt2(−/−)+DMOG vs Akt2(−/−) cells, relative to citrate synthase flux of 1) | ECAR and glycolysis (glycolytic function) (HEK293 MUL1(−/−) cells [3]) | oxygen consumption rate (OCR) (HEK293 MUL1(−/−) cells [4]) | mitochondrial respiration (HEK293 MUL1(−/−) cells [4]) | expression of GLUT1 (HIF-1α) | Akt2 kinase activity (P-GSK-3β S9) (Akt2)
COC(=O)CNC(=O)C(=O)OC [DMOG, dimethyloxalyglycine] | small but significant increase | unremarkable | elevated above WT, but fell short of reaching MUL1(−/−) levels | partially restored with DMOG, but did not reach the WT levels | significantly increased | – | – | – | – | –
CN1C(=O)[C@]2(Cc3cn([C@]45C[C@@]67SS[C@@](CO)(C(=O)N6[C@H]4Nc4ccccc45)N(C)C7=O)c4ccccc34)SS[C@@]1(CO)C(=O)N2C [chetomin] | – | – | – | – | – | very potent inhibitor of the mitochondrial glycolytic function | further reduced | potent inhibitors of mitochondrial respiration | significantly reduces | –
CCCCCCCCCCCCCCCCCCOP(=O)([O-])OC1CC[N+](C)(C)CC1 [perifosine] | – | – | – | – | – | reduced ECAR and glycolysis to a level lower than the one present in HEK293 WT cells | further reduced | potent inhibitors of mitochondrial respiration | – | inhibits
